Experimental data published in patent US20260376293A1, “METHODS FOR STUDYING GPR158 PHARMACOLOGY AND IDENTIFICATION OF ITS LIGANDS” (UNIVERSITY OF FLORIDA RESEARCH FOUNDATION, INCORPORATED, priority 2022, published 2026).

Test system: layer II-III pyramidal neurons
Assay: Whole cell recordings, layer II-III prelimbic cortex neurons, WT mice
Assay type: cell-based, mouse
Conditions: 1 mM
Method: FIGS. 14A-14H. Effect of glycine on neuronal excitability. A) Schematic of the electrophysiological recordings in slice preparation targeting mPFC neurons of layer II-III. Experiments were conducted with a cocktail of synaptic blockers: picrotoxin (100 μM) (blockade of GABAA receptor chloride channels), strychnine (1 μM) (antagonist of glycine and acetylcholine ionotropic receptors), CNQX (20 μM) (AMPA receptors antagonist), and APV (50 μM) (NMDAR antagonist). B) Representative traces of voltage responses to a 200 pA current ramp injection under control conditions and after bath application of glycine (1 mM) in WT mice. C) Quantification of changes in excitability by number of action potentials fired in response to 200 pA current ramp (n=8 neurons from 5 mice). Nonparametric t-test; Wilcoxon test, **p<0.01. D) Quantification of changes in excitability by rheobase current under control condition and glycine application (n=8 neurons from 5 mice). Nonparametric t-test; Wilcoxon test, **p<0.01. E) Representative traces of voltage responses to a 200 pA current ramp injection obtained from layer II-III pyramidal neurons in GPR158 KO mice under control conditions and during bath application of glycine (1 mM). F) Quantification of changes in excitability by number of action potentials fired in response to 200 pA current ramp (n=4 neurons/3 mice). Nonparametric t-test; Wilcoxon test, ns=p>0.05. G) Quantification of changes in excitability by rheobase current under control condition and glycine application (n=4 neurons/3 mice). Nonparametric t-test; Wilcoxon test, ns=p>0.05. H) Schematic representation of the proposed mechanism of glycine effects on mGlyR. In 14C, 14D, 14F, and 14G, solid circles (Ctrl), circles with no fill (Glycine), columns with no fill (Ctrl), and columns with dotted fill (Glycine).
FIGS. 15A-15H. Effect of glycine and taurine on excitability of layer V neurons and membrane properties of layer II/III neurons in wild type and GPR158 knockout mice. A) Representative traces of voltage responses to a 200 pA current ramp injection obtained from layer V pyramidal neurons in WT mice under control conditions and during bath application of glycine (1 mM). B) Quantification of glycine effects on neuronal excitability by number of action potentials fired in response to 200 pA current ramp under control condition and glycine application (n=4 neurons/3 mice). Nonparametric t-test; Wilcoxon test, ns=p>0.05. C) Quantification of glycine effects on neuronal excitability by rheobase current under control condition and glycine application (n=4 neurons/3 mice). Nonparametric t-test; Wilcoxon test, ns=p>0.05. D) Resting membrane potential of layer V pyramidal neurons in WT mice under control conditions and during bath application of glycine (n=4 neurons/3 mice). […]

[1] = 200 pA current ramp, synaptic blockers

NCCS(=O)(=O)O [taurine, 2-aminoethanesulfonic acid]
rheobase current [1]: ns

NCC(=O)O [glycine]
resting membrane potential: without changes in the resting membrane potential
number of action potentials fired [1]: significantly increased the number of action potentials
rheobase current [1]: decreasing the amount of current necessary to elicit the first action potential
